Laboratory results from patent US9408856B2, “Topical steroidal formulations” (Temple University—Of The Commonwealth System of Higher …, priority 2008, dated 2016).

Experiments:
[1] = tested on: dexamethasone-induced thymic and splenic atrophy; assay: Dexamethasone-induced thymic and splenic atrophy in mice; type: in vivo, CD-1 mice; parameters: Thymus wt / Spleen wt: unit not given here; conditions: for Approximate Potency Compared to Fluasterone in Protecting Against DEX-induced Thymic and Splenic Involution: fluasterone = 1
Protocol: Administration of dehydroepiandrosterone (DHEA, 60 mg/kg, s.c.) for three days partially reverse thymic and splenic atrophy induced by a single injection of dexamethasone (1.6 mg/mouse). In this experiment, the efficacy of either 10 mg/kg or 20 mg/kg DHEA administered s.c. versus the effect of 10 mg/kg or 20 mg/kg fluasterone was investigated.
5% Cremophor (polyethoxylated castor oil; Sigma Chemicals)-95% saline vehicle was prepared using 95 mL of sterile 0.9% NaCl (filtered through sterile 0.22 micron filter) and 5 mL of Cremophor. The Cremophor was dissolved by swirling for approximately 5 minutes.
Dexamethasone solutions were prepared by dissolving dexamethasone (Sigma Chemicals) in absolute ethanol. For example, 71.9 mg of dexamethasone was dissolved in 2.9 mL of absolute ethanol. In order to prevent precipitation, the solution was kept on a hotplate between injections.
For the 10 mg/kg suspension, 25.7 mg of DHEA was weighed out, transferred to a glass scintillation vial, and 10.3 mL of the Cremophor-saline vehicle was added. The DHEA suspension was homogenized using a Tissumizer at 80% power for 30 sec. The Tissumizer was rinsed with 70% ethanol prior to homogenization. After the 10 mg/kg DHEA suspension was homogenized the probe was rinsed 2× with 50 mL of absolute ethanol, then with 50 mL of 70% ethanol, and then dried with sterile gauze. For the 20 mg/kg DHEA suspension, 50.9 mg DHEA was suspended in 10.2 mL of Cremophor-saline vehicle.
19.4 mg of fluasterone was weighed out and transferred to a glass scintillation vial. 7.8 mL of Cremophor-saline vehicle was added to the vial and the contents of the vial were homogenized with a Tissumizer as described previously. Prior to preparing the 20 mg/kg fluasterone, the probe was rinsed 2× with 50 mL of absolute ethanol and 1× with 50 mL of 70% ethanol. For the 20 mg/kg suspension, 47.0 mg was weighed out and transferred to a glass scintillation vial. 9.4 mL of Cremophor-saline vehicle was added to the vial and the contents of the vial were homogenized with a Tissumizer as described above.
Female CD-1 mice, 43-45 days old, were obtained from Charles River Laboratories. The mice were housed 5 per cage in plastic shoebox cages with ad libitum access to Purina chow 5015 and water in the Pharmacy CAF with 12 hr of alternating light and darkness.
Prior to the experiment the mice were weighed, separated into 6 groups containing 5 mice each and treated as follows:
Mice were treated s.c. with 0.1 mL of 5% Cremophor-95% saline for three days. On the third day, the mice were also treated s.c. with 1.6 mg of dexamethasone dissolved in 0.06 mL of absolute. ethanol.
Mice were treated s.c. with 0.25 mg of DHEA suspended in 0.1 mL of 5% Cremophor-95% saline for three days. On the third day, the mice were also treated s.c. with 1.6 mg of dexamethasone dissolved in 0.06 mL of absolute ethanol.
Mice were treated s.c. with 0.5 mg of DHEA suspended in 0.1 mL of 5% Cremophor-95% saline for three days. On the third day, the mice were also treated s.c. with 1.6 mg of dexamethasone dissolved in 0.06 mL of absolute ethanol.
Mice were treated s.c. with 0.25 mg of fluasterone suspended in 0.1 mL of 5% Cremophor-95% saline for three days. On the third day, the mice were also treated s.c. with 1.6 mg of dexamethasone dissolved in 0.06 mL of absolute ethanol.
Mice were treated s.c. with 0.5 mg of fluasterone suspended in 0.1 mL of 5% Cremophor-95% saline for three days. On the third day, the mice were also treated s.c. with 1.6 mg of dexamethasone dissolved in 0.06 mL of absolute ethanol.
All s.c. injections were made in the nape. All mice were lightly anesthetized while the s.c. injections were done.
Twenty-four hours after dexamethasone treatment, the mice were euthanized by an overdose of isoflurane. The spleen and thymus were removed, cleaned of any adventitia, rinsed, blotted on filter paper, and weighed. […]

[2] = Fate of orally administered 14C-fluasterone
[3] = target: glucose 6-phosphate dehydrogenase (G6PDH) (Homo sapiens, UniProt P11413); conditions: Schwartz et al., Cancer Res. 48:4817-4822, 1988; cited from earlier work
glucose 6-phosphate dehydrogenase (G6PDH), sequence (P11413 whole entry): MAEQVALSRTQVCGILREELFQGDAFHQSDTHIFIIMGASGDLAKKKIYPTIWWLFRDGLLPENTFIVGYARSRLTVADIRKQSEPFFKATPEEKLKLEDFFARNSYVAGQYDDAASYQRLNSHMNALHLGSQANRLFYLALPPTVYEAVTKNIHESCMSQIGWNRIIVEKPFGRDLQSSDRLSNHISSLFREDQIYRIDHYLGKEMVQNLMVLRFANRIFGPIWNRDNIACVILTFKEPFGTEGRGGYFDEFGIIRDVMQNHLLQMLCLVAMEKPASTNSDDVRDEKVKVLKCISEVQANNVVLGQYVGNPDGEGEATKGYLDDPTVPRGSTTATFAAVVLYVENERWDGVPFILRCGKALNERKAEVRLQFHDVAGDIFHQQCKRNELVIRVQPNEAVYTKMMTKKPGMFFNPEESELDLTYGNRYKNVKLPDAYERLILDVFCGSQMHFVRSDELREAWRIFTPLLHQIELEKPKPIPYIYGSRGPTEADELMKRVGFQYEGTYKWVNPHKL

[4] = Table 16, steroid 20 mg/kg + dexamethasone
[5] = Table 16, steroid 60 mg/kg + dexamethasone
[6] = Table 16, steroid 5 mg/kg + dexamethasone
[7] = Table 16, steroid 10 mg/kg + dexamethasone
[8] = Table 15, steroid 10 mg/kg in Cremophor-saline + dexamethasone
[9] = Table 15, steroid 20 mg/kg in Cremophor-saline + dexamethasone
[10] = Table 16, steroid 40 mg/kg + dexamethasone

## C[C@]12CC[C@H]3[C@@H](CC=C4CCCC[C@@]43C)[C@@H]1C[C@@H](F)[C@@H]2O [16α-fluoro-5-androsten-17β-ol]
[1]; [4]
  Body Weight: 25.1 ± 1.0
  Spleen wt: 52.3 ± 10.8
  Spleen wt/BW: 2.1 ± 0.4
  Thymus wt: 42.3 ± 4.6
  Thymus wt/BW: 1.7 ± 0.2
[1]; [5]
  Body Weight: 25.7 ± 1.5
  Spleen wt: 45.9 ± 5.1
  Spleen wt/BW: 1.8 ± 0.2
  Thymus wt: 45.1 ± 5.1
  Thymus wt/BW: 1.8 ± 0.2
[1]; mice
  Approximate Potency Compared to Fluasterone in Protecting Against DEX-induced Thymic and Splenic Involution: < 1/12

## C[C@@H]1C[C@H]2[C@@H]3CCC4=CC(=O)C=C[C@]4(C)[C@@]3(F)[C@@H](O)C[C@]2(C)[C@@]1(O)C(=O)CO [DEXAMETHASONE, dexamethasone, reference compound]
[1]; Table 12, dexamethasone 1.6 mg s.c. once after vehicle s.c. 3 days, 24 h after dexamethasone
  Thymus wt: 33.2 ± 1.3

## C[C@]12CCCCC1=C[C@@H](O)[C@@H]1[C@@H]2CC[C@]2(C)C(=O)[C@H](F)C[C@@H]12 [7α-hydroxyfluasterone, 7α-hydroxy-16α-fluoro-5-androsten-17-one]
[1]; [6]
  Body Weight: 24.5 ± 1.0
  Spleen wt: 46.3 ± 11.1
  Spleen wt/BW: 1.8 ± 0.5
  Thymus wt: 43.8 ± 6.9
  Thymus wt/BW: 1.8 ± 0.3
[1]; [7]
  Body Weight: 24.0 ± 1.3
  Spleen wt: 50.9 ± 12.5
  Spleen wt/BW: 2.1 ± 0.5
  Thymus wt: 54.8 ± 12.1
  Thymus wt/BW: 2.3 ± 0.4
[1]; mice
  Approximate Potency Compared to Fluasterone in Protecting Against DEX-induced Thymic and Splenic Involution: about ½

## C[C@H]1CC[C@@]2(C)C(=CC[C@@H]3[C@@H]2CC[C@]2(C)C(=O)CC[C@@H]32)C1 [3β-methyl-5-androsten-17-one]
[1]; [8]
  Spleen wt: 70.7 + 4.5
  Spleen wt/BW: 2.9 + 0.2
  Thymus wt: 61.9 + 3.9
  Thymus wt/BW: 2.6 + 0.2
[1]; [9]
  Spleen wt: 67.0 ± 11.3
  Spleen wt/BW: 2.6 ± 0.2
  Thymus wt: 62.2 ± 4.1
  Thymus wt/BW: 2.4 ± 0.2
[1]; mice
  Approximate Potency Compared to Fluasterone in Protecting Against DEX-induced Thymic and Splenic Involution: slightly less active
  rank of activity among steroids tested against DEX-induced thymic and splenic involution: almost as great potency

## C[C@]12CCCCC1=CC[C@@H]1[C@@H]2CC[C@]2(C)C(=O)[C@H](F)C[C@@H]12 [^14C-Fluasterone]
[2]
  metabolism after oral administration: extensive first-pass hepatic and/or gastrointestinal metabolism

## C[C@]12CCCCC1=CC[C@@H]1[C@@H]2CC[C@]2(C)C(=O)[C@H](O)C[C@@H]12 [16α-hydroxy-5-androsten-17-one]
[1]; [4]
  Body Weight: 25.4 ± 1.5
  Spleen wt: 46.6 ± 7.5
  Spleen wt/BW: 1.8 ± 0.2
  Thymus wt: 41.2 ± 1.3
  Thymus wt/BW: 1.6 ± 0.1
[1]; [5]
  Body Weight: 23.8 ± 0.8
  Spleen wt: 53.6 ± 6.3
  Spleen wt/BW: 2.2 ± 0.3
  Thymus wt: 45.9 ± 3.1
  Thymus wt/BW: 1.9 ± 0.2
[1]; mice
  Approximate Potency Compared to Fluasterone in Protecting Against DEX-induced Thymic and Splenic Involution: about 1/12

## C[C@@H]1C[C@H]2[C@@H]3CC=C4CCCC[C@]4(C)[C@H]3CC[C@]2(C)C1=O [16α-methyl-5-androsten-17-one]
[1]; [8]
  Body Weight: 25.3 ± 0.8
  Spleen wt: 37.8 ± 6.1
  Spleen wt/BW: 1.5 ± 0.3
  Thymus wt: 28.0 ± 1.7
  Thymus wt/BW: 1.1 ± 0.1
[1]; mice
  Approximate Potency Compared to Fluasterone in Protecting Against DEX-induced Thymic and Splenic Involution: about ⅙ or less

## C[C@H]1CC[C@@]2(C)C(=CC[C@@H]3[C@@H]2CC[C@]2(C)C(=O)[C@H](Cl)C[C@@H]32)C1 [3β-methyl-16α-chloro-5-androsten-17-one]
[1]; [8]
  Spleen wt: 42.3 ± 5.6
  Spleen wt/BW: 1.6 ± 0.2
  Thymus wt: 31.7 ± 4.1
  Thymus wt/BW: 1.2 ± 0.1
[1]; [9]
  Spleen wt: 38.6 ± 6.3
  Spleen wt/BW: 1.2 ± 0.3
  Thymus wt: 28.6 ± 3.2
  Thymus wt/BW: 1.1 ± 0.1
[1]; mice
  Approximate Potency Compared to Fluasterone in Protecting Against DEX-induced Thymic and Splenic Involution: about ⅙ or considerably

## C[C@H]1CC[C@@]2(C)C(=CC[C@@H]3[C@@H]2CC[C@]2(C)C(=O)[C@H](C)C[C@@H]32)C1 [3β-methyl-16α-methyl-5-androsten-17-one]
[1]; 20 mg/kg group, Example 9
  recovery from anesthesia (two mice of the group): never recovered from anesthesia
[1]; [8]
  Spleen wt: 44.9 + 9.2
  Spleen wt/BW: 1.7 + 0.3
  Thymus wt: 42.6 + 4.7
  Thymus wt/BW: 1.7 + 0.2
[1]; [9]
  Spleen wt: 44.4 ± 8.7
  Spleen wt/BW: 1.8 ± 0.3
  Thymus wt: 37.7 ± 4.0
  Thymus wt/BW: 1.5 ± 0.2
[1]; mice
  Approximate Potency Compared to Fluasterone in Protecting Against DEX-induced Thymic and Splenic Involution: about ⅙

## C[C@H]1CC[C@@]2(C)C(=CC[C@@H]3[C@@H]2CC[C@]2(C)C(=O)[C@H](F)C[C@@H]32)C1 [3β-methyl-16α-fluoro-5-androsten-17-one]
[1]; [8]
  Spleen wt: 50.9 ± 7.5
  Spleen wt/BW: 2.0 ± 0.3
  Thymus wt: 43.8 ± 3.0
  Thymus wt/BW: 1.7 ± 0.1
[1]; [9]
  Spleen wt: 55.0 ± 4.6
  Spleen wt/BW: 2.2 ± 0.1
  Thymus wt: 55.8 ± 5.4
  Thymus wt/BW: 2.2 ± 0.2
[1]; mice
  Approximate Potency Compared to Fluasterone in Protecting Against DEX-induced Thymic and Splenic Involution: <½

## C[C@]12CCCC[C@@H]1CC[C@@H]1[C@@H]2CC[C@]2(C)C(=O)[C@H](F)C[C@@H]12 [compound 8356, 16α-fluoro-5α-androstan-17-one]
[1]; [4]
  Body Weight: 25.2 ± 2.9
  Spleen wt: 54.0 ± 4.5
  Spleen wt/BW: 2.0 ± 0.3
  Thymus wt: 40.8 ± 5.8
  Thymus wt/BW: 1.6 ± 0.1
[1]; [10]
  Body Weight: 25.2 ± 1.4
  Spleen wt: 51.2 ± 3.0
  Spleen wt/BW: 2.0 ± 0.2
  Thymus wt: 54.4 ± 4.5
  Thymus wt/BW: 2.2 ± 0.2
[1]; mice
  Approximate Potency Compared to Fluasterone in Protecting Against DEX-induced Thymic and Splenic Involution: about ⅛
[3]
  G6PDH inhibition compared with fluasterone: more potent G6PDH inhibitor than fluasterone
